From ChEMBL document CHEMBL1268851, “Anti-inflammatory Biphenyls and Dibenzofurans from Rhaphiolepis indica” (J Nat Prod, 2010)

experiment: Antiinflammatory activity in human neutrophils assessed as inhibition of fMLP-indcued superoxide production after 5 mins; format: functional, cell-based; conditions: Neutrophil

`COc1c(O)cc2c(oc3c(OC)cccc32)c1OC` and `COc1c(O)cc2c(oc3cccc(OC)c32)c1OC` are the same in IC50: 27.4 µM for the first, 27.4 µM for the second.

Going from `COc1c(O)cc2c(oc3c(OC)ccc(OC)c32)c1OC` to `COc1c2c(c3c(oc4c(OC)cccc43)c1OC)OCO2`, the IC50 rises from 7.61 µM to greater than 100 µM.

Compared with `COc1cc(O)cc(-c2ccccc2)c1`, `COc1cc(O)cc(-c2ccccc2O)c1` is 17-fold lower in IC50: 34.1 µM for the first, 2.04 µM for the second. The second is the more potent here.

Going from `CC(C)Cc1ccc(C(C)C(=O)O)cc1` (stereo not drawn) [IBUPROFEN] to `COc1cc(O)cc(-c2ccccc2OC)c1`, the IC50 falls from 27.5 µM to 8.36 µM (3.3-fold). The second is the more potent here.
